Measured values from patent publication US11053234B2 (GlaxoSmithKline Intellectual Property Development Limited, priority 2016, dated 2021).
Structures can show the parent of a compound that is named as a salt.

Target: T1, haematopoietic prostaglandin D synthase (H-PGDS) (Homo sapiens, UniProt O60760)
T1 construct: Full length human H-PGDS cDNA (Invitrogen Ultimate ORF 10H13026) was amplified by PCR; 6-His (N); TEV protease cleavage site (N); made in house; host or cells: E. coli BL21 (DE3*), vector pET22b+
Assay: H-PGDS RapidFire high throughput mass spectrometry assay (conversion of PGH2 to PGD2)
Assay type: biochemical
Settings: 10 nM H-PGDS, PGH2 formed in situ by COX-2 from arachidonic acid; read-out: Potency Range (mean pIC50) (converted)
Experimental: H-PGDS RapidFire™ High Throughput Mass Spectrometry Assay
The H-PGDS RapidFire™ mass spectrometric assay monitors conversion of prostaglandin H2 (PGH2) to prostaglandin D2 (PGD2) by haematopoietic prostaglandin D synthase (H-PGDS). In the assay format described here, the substrate (PGH2) is formed in situ by the action of cyclooxygenase-2 on arachidonic acid. This first step is set up to be fast, and generates a burst of PGH2 at ˜10 μM. The PGH2 is then further converted to PGD2 by the H-PGDS enzyme. […] Plates are then read on the RapidFire™ high throughput solid phase extraction system (Agilent) which incorporates a solid phase extraction step coupled to a triple quadrupole mass spectrometer (AB SCIEX). Relative levels of PGD2 and PGF2α, which acts as a surrogate for substrate, are measured and a percent conversion calculated.
Expression and Purification of H-PGDS Protein
Full length human H-PGDS cDNA (Invitrogen Ultimate ORF 10H13026) was amplified by PCR with the addition of a 5′ 6-His tag and TEV protease cleavage site. The PCR product was digested with Ndel and Xhol and ligated into pET22b+ (Merck Novagen®). Expression was carried out in E. coli strain BL21 (DE3*) using auto-induction Overnight Express™ Instant TB medium (Merck Novagen®) supplemented with 1% glycerol. The culture was first grown at 37° C. and the temperature was reduced to 25° C. when OD600 reached 2.0. Cells were harvested by centrifugation after a further 18 hr. 10 g of E. coli cell pellet was suspended to a total volume of 80 mL in lysis buffer (20 mM Tris-Cl pH 7.5, 300 mM NaCl, 20 mM imidazole, 5 mM β-mercaptoethanol, 10% glycerol). 1 mg/mL protease inhibitors (Protease Inhibitor Cocktail Set III, Merck Calbiochem®) and 1 mg/mL lysozyme were added to the cell suspension. The suspension was then sonicated for 5 min (UltraSonic Processor VCX 750, Cole-Parmer Instrument Co.) with a micro probe (50% amplitude, 10 sec on/off) and then centrifuged at 100,000 g for 90 min (at 4° C.). The supernatant was loaded onto a Ni-NTA HiTrap column (5 mL, GE Healthcare, pre-equilibrated in lysis buffer). The column was washed with 10 column volumes of lysis buffer and eluted with lysis buffer containing 500 mM imidazole. The pooled protein peak fractions were concentrated using a 10 kDa centrifugal filter at 3500 g and 4° C. (Amicon Ultra-15 centrifugal filter unit with Ultracel-10 membrane from Millipore). Further purification of the concentrated protein was carried out using gel filtration chromatography on a HiLoad 26/600 Superdex 75 preparative grade column (GE Healthcare Life Sciences) using 50 mM Tris pH 7.5, 50 mM NaCl, 1 mM dithiothreitol, 1 mM MgCl2. Fractions containing the protein were pooled, concentrated as described above, and stored at −80° C.
Expression and Purification of Cyclooxygenase-2 (COX-2) Protein
The full length human COX-2 gene (accession number L15326) was amplified by PCR to generate an EcoRI-HindIII fragment containing an in-frame FLAG tag. This was subcloned into pFastBac 1 (Invitrogen). The COX2 FLAG plasmid was recombined into the baculovirus genome according to the BAC-to-BAC protocol described by Invitrogen. Transfection into Spodoptera frugiperda (Sf9) insect cells was performed using Cellfectin (Invitrogen), according to the manufacturer's protocol. […] Cells were harvested using a continuous feed centrifuge run at 2500 g at a rate of approximately 2 L/min with cooling. The resultant cell slurry was re-centrifuged in pots (2500 g, 20 min, 4° C.) and the cell paste was stored at −80° C. […] The suspension was sonicated in 500 mL batches for 8×5 seconds at 10 u amplitude with the medium tip of an MSE probe sonicator and subsequently incubated at 4° C. for 90 min with gentle stirring. The lysate was centrifuged at 12000 rpm for 45 min at 4° C. in a Sorvall SLA1500 rotor. The supernatant (1400 mL) was added to 420 mL of 20 mM Tris-Cl pH 7.4, 150 mM NaCl, 0.1 mM EDTA to reduce the concentration of n-octyl-6-D-glucopyranoside to 1% w/v.

T1 sequence (O60760 whole entry): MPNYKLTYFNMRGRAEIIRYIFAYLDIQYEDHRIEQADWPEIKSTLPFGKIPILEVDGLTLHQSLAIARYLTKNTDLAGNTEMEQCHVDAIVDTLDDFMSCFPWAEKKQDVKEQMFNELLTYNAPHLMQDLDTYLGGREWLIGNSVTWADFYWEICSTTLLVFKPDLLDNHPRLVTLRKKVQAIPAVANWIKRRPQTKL

`CC(C)(O)[C@H]1CC[C@H](NC(=O)[C@H]2C[C@H](Oc3cc(F)cc4scnc34)C2)CC1` [Example 140, (trans)-3-((6-Fluorobenzo[d]thiazol-4-yl)oxy)-N-((trans)-4-(2-hydroxypropan-2-yl)cyclohexyl)cyclobutanecarboxamide] and `CC(C)(O)C1CC2(CC(NC(=O)[C@H]3C[C@H](Oc4cc(F)cc5scnc45)C3)C2)C1` (mixture of isomers) [Example 116, Racemic (trans)-3-((6-Fluorobenzo[d]thiazol-4-yl)oxy)-N-(6-(2-hydroxypropan-2-yl)spiro[3.3]heptan-2-yl)cyclobutanecarboxamide] fall in the same range of IC50: 10 to 79.4 nM for the first, 10 to 79.4 nM for the second.

`O=C(NC1CCCCC1)[C@H]1C[C@H](Oc2cccc3scnc23)C1` [Example 253] and `O=C(NC1CCCCC1)N1CC(Oc2cccc3scnc23)C1` [Example 64, 3-(Benzo[d]thiazol-4-yloxy)-N-cyclohexylazetidine-1-carboxamide] fall in the same range of IC50: 100 to 1000 nM for the first, 100 to 1000 nM for the second.

First: Cc1ccc(N2CC(NC(=O)[C@H]3C[C@H](Oc4cccc5scnc45)C3)C2)nc1 [Example 239, (trans)-3-(Benzo[d]thiazol-4-yloxy)-N-(1-(5-methylpyridin-2-yl)azetidin-3-yl)cyclobutanecarboxamide]
Second: COCCNc1nccc(N2CC(NC(=O)[C@H]3C[C@H](Oc4cccc5scnc45)C3)C2)n1 [Example 72, (trans)-3-(Benzo[d]thiazol-4-yloxy)-N-(1-(2-((2-methoxyethyl)amino)pyrimidin-4-yl)azetidin-3-yl)cyclobutanecarboxamide]
The IC50 of the first is lower: 10 to 79.4 nM for the first, 100 to 1000 nM for the second.

Compared with `CC(C)(O)[C@H]1CC[C@H](NC(=O)[C@H]2C[C@H](Oc3cc(F)cc(Cl)c3)C2)CC1` [Example 290, (trans)-3-(3-Chloro-5-fluorophenoxy)-N-((trans)-4-(2-hydroxypropan-2-yl)cyclohexyl)cyclobutanecarboxamide], `CC(C)(O)CO[C@H]1CC[C@H](NC(=O)[C@H]2C[C@H](Oc3cc(F)ccc3OC(F)F)C2)CC1` [Example 33, (trans)-3-(2-(Difluoromethoxy)-5-fluorophenoxy)-N-((trans)-4-(2-hydroxy-2-methylpropoxy)cyclohexyl)cyclobutanecarboxamide] is lower in IC50: 100 to 1000 nM for the first, 10 to 79.4 nM for the second.

`Cc1nc(NC(=O)N2CC(Oc3cccc4scnc34)C2)ns1` [Example 336, 3-(Benzo[d]thiazol-4-yloxy)-N-(5-methyl-1,2,4-thiadiazol-3-yl)azetidine-1-carboxamide] and `O=C(Nc1cccc(N2CCOCC2)c1)[C@H]1C[C@H](Oc2cccc3scnc23)C1` [Example 248, (trans)-3-(Benzo[d]thiazol-4-yloxy)-N-(3-morpholinophenyl)cyclobutanecarboxamide] fall in the same range of IC50: 10 to 79.4 nM for the first, 10 to 79.4 nM for the second.

`O=C(NC1CN(c2ccccn2)C1)[C@H]1C[C@H](Oc2cc(F)ccc2OC(F)F)C1` [Example 18, (trans)-3-(2-(Difluoromethoxy)-5-fluorophenoxy)-N-(1-(pyridin-2-yl)azetidin-3-yl)cyclobutanecarboxamide] and `COc1ccc(F)cc1O[C@H]1C[C@H](C(=O)NC2CN(c3ncc(C#N)s3)C2)C1` [Example 147, (trans)-N-(1-(5-Cyanothiazol-2-yl)azetidin-3-yl)-3-(5-fluoro-2-methoxyphenoxy)cyclobutanecarboxamide] fall in the same range of IC50: 10 to 79.4 nM for the first, 10 to 79.4 nM for the second.

First: NC(=O)c1ccc(N2CC(NC(=O)[C@H]3C[C@H](Oc4cc(F)cc5scnc45)C3)C2)nc1 [Example 110, 6-(3-((trans)-3-(6-Fluorobenzo[d]thiazol-4-yloxy)cyclobutanecarboxamido)azetidin-1-yl)nicotinamide]
Second: O=C(Nc1nccs1)[C@H]1C[C@H](Oc2ccc(F)c3cccnc23)C1 [Example 291, (trans)-3-((5-Fluoroquinolin-8-yl)oxy)-N-(thiazol-2-yl)cyclobutanecarboxamide, trifluoroacetic acid salt]
The IC50 of the first is lower: 10 to 79.4 nM for the first, 100 to 1000 nM for the second.

Compound `O=C(Nc1nccs1)[C@H]1C[C@H](Oc2cccc(Cl)c2)C1` [Example 287, (trans)-3-(3-Chlorophenoxy)-N-(thiazol-2-yl)cyclobutanecarboxamide] has an IC50 of 10 to 79.4 nM.
